Test results published in US20260022340A1, “ATRIOVENTRICULAR NODE-LIKE PACEMAKER CELLS” (UNIVERSITY HEALTH NETWORK, priority 2022, published 2026).

Test system: human cardiac progenitors
Test: Induction of AVN phenotype in hPSC-derived cardiac progenitors, flow cytometry for NKX2-5+TBX3+ myocytes at day 20
Format: cell-based
Protocol: First, hPSCs were incubated in media containing BMP and Rho-associated protein kinase (ROCK) inhibitor on an orbital shaker to generate embryoid bodies (differentiation protocol day: 0). Then, cardiogenic mesoderm was induced using media containing 1-100 ng/mL BMP4, 1-100 ng/ml Activin A, 1-20 ng/mL bFGF, and 1-10 μM CHIR-99021 (differentiation protocol day: 1). […] The cardiogenic mesoderm can be analyzed at day 3/4 of differentiation for the expression of PDGFRa, RALDH2 and CD235a, and should be PDGFRa+RALDH2− and CD235a^low (max 50% positive).
Next, cardiac progenitors were induced using media that contained 0.5-10 μM IWP2 and 1-20 ng/mL VEGF (differentiation protocol day: 3). At this stage, the cardiac progenitors may be a mixed population of early stage (NKX2-5^−) and late stage (NKX2-5^+) cardiac progenitors which may be contractile or not. […] Culture was continued in media that contained 5 ng/mL VEGF until day 12 of the differentiation protocol. The culture was maintained until day 20 of the differentiation protocol before analysis. […] FIGS. 3B, 4B, 5A and 5B present the percentage of NKX2-5^+ TBX3^+ myocytes of total cells present in the culture.
A NKX2-5:GFP+TBX3:tdTomato+ transgenic double reporter hPSC line was cultured using the protocol described in Example 1. AVNLPCs were identified and isolated using Fluorescence-activated cell sorting (FACS), based on their expression of NKX2-5 and TBX3 and the associated expression of the fluorescent reporter (FIG. 2).

Structure (SMILES): Cc1c[nH]c(-c2cnc(NCCNc3ccc(C#N)cn3)nc2-c2ccc(Cl)cc2Cl)n1 [CHIR-99021]
- Change in NKX2-5+TBX3+ AVNLPCs of total cell population at day 20 (9 uM CHIR from day 8-11, day 11-15 or day 15-18, n=5 (FIG. 3B)): significant increase
- CHIR-99021 concentration at which relatively more NKX2-5+TBX3+ myocytes were induced (3-15 μM used): 12 to 15 µM
- CHIR concentration giving highest percentage of NKX2-5+TBX3+ AVNLPCs (treatment day 8-11, day 20 analysis, n=5 (FIG. 4B)): 12 to 15 µM
